Measured values published in US20200261391A1, “METHODS OF REDUCING THE RISK OF A CARDIOVASCULAR EVENT IN A STATIN-TREATED SUBJECT BY INCREASING SERUM AND PLASMA EPA AND DPA LEVELS” (Amarin Pharmaceuticals Ireland Limited, priority 2019, published 2020).
Several values for one entry are separate records, joined by “and”; a condition that tells them apart may be missing. Equal entries are not always repeated.

Experiments:
[1] = test system: patients with elevated triglyceride levels on statin therapy; assay: REDUCE-IT endpoints by EPA/AA ratio tertile in the icosapent ethyl group compared to placebo; assay type: in vivo, human
Experimental: This is a study aimed towards determining a relative risk reduction (RRR) between subjects stratified by EPA tertiles in the REDUCE-IT clinical trial described above in Example 1. Samples were obtained from those subjects and total EPA and AA levels in human serum and plasma samples were determined according at least to the methods described in Example 7.
(§1) The objective of this study is to assess the effects of administering icosapent ethyl at 4 g per day to patients from the REDUCE-IT trial of Example 1. More specifically, patients from the REDUCE-IT trial of Example 1 were stratified by their EPA levels into one of three tertiles. Following stratification, the objective was to determine if the RRR differs between patients having EPA levels in the three different tertiles. For the data collected as shown in Tables 38-43 and FIGS. 52, 53, and 56-59, the tertiles were established based on data collected from subjects at 1 year, 2 years, and last visit following icosapent ethyl administration compared to placebo. Data are presented as an average of 1 year, 2 year, […], and end of study values. The data was further analyzed use both pooled and unpooled statistically methods.

[2] = test system: patients with elevated triglyceride levels on statin therapy; assay: REDUCE-IT endpoints by pooled (icosapent ethyl and placebo) EPA/AA ratio tertile; assay type: in vivo, human; conditions: icosapent ethyl and placebo pooled
Description: as §1
Placebo and icosapent ethyl treated subjects were pooled and stratified based on EPA/AA tertiles with […], […], and the highest […]

[3] = EPA/AA >0.373068 to ≤0.727974, on-treatment average
[4] = EPA/AA >0.727974, on-treatment average
[5] = highest >0.395187 vs lowest ≤0.084337
[6] = highest >0.395187 vs middle >0.084337 to ≤0.395187
[7] = middle >0.084337 to ≤0.395187 vs lowest ≤0.084337

CC/C=C\C/C=C\C/C=C\C/C=C\C/C=C\CCCC(=O)OCC [icosapent ethyl, eicosapentaenoic acid ethyl ester]
key secondary endpoint HR, middle EPA/AA tertile vs. placebo ([1]; EPA/AA >0.373068 to ≤0.727974): 0.61 | primary endpoint HR, middle EPA/AA tertile vs. placebo ([1]; EPA/AA >0.373068 to ≤0.727974): 0.70 | HR (95% CI), Key Secondary Endpoint, Middle EPA/AA ratio tertile vs Placebo [1, 3]: 0.61 (0.49, 0.75) | HR (95% CI), Primary Endpoint, Middle EPA/AA ratio tertile vs Placebo [1, 3]: 0.70 (0.59, 0.82) | key secondary endpoint HR, highest EPA/AA tertile vs. placebo ([1]; EPA/AA >0.727974): 0.65 | primary endpoint HR, highest EPA/AA tertile vs. placebo ([1]; EPA/AA >0.727974): 0.67 | HR (95% CI), Key Secondary Endpoint, Highest EPA/AA ratio tertile vs Placebo [1, 4]: 0.65 (0.54, 0.80) | HR (95% CI), Primary Endpoint, Highest EPA/AA ratio tertile vs Placebo [1, 4]: 0.67 (0.57, 0.79) | key secondary endpoint HR, lowest EPA/AA tertile vs. placebo ([1]; EPA/AA ≤0.373068): 0.94 | primary endpoint HR, lowest EPA/AA tertile vs. placebo ([1]; EPA/AA ≤0.373068): 0.83 | HR (95% CI), Key Secondary Endpoint, Lowest EPA/AA ratio tertile vs Placebo ([1]; EPA/AA ≤0.373068, on-treatment average): 0.94 (0.78, 1.13) | primary endpoint HR, highest EPA/AA tertile vs. placebo ([1]; FIG. 55, ITT, EPA/AA >0.7403): 0.70 and 0.63 | primary endpoint HR, lowest EPA/AA tertile vs. placebo ([1]; FIG. 55, ITT, EPA/AA ≤0.3845): 0.88 | HR (95% CI), Key Secondary Endpoint, pooled EPA/AA ratio tertiles, Highest vs Lowest [2, 5]: 0.57 (0.48,0.68) | HR (95% CI), Primary Endpoint, pooled EPA/AA ratio tertiles, Highest vs Lowest [2, 5]: 0.64 (0.56, 0.73) | HR (95% CI), Key Secondary Endpoint, pooled EPA/AA ratio tertiles, Highest vs Middle [2, 6]: 0.75 (0.63, 0.89) | HR (95% CI), Primary Endpoint, pooled EPA/AA ratio tertiles, Highest vs Middle [2, 6]: 0.84 (0.73, 0.96) | HR (95% CI), Key Secondary Endpoint, pooled EPA/AA ratio tertiles, Middle vs Lowest [2, 7]: 0.76 (0.65, 0.89) | HR (95% CI), Primary Endpoint, pooled EPA/AA ratio tertiles, Middle vs Lowest [2, 7]: 0.77 (0.67, 0.87)
